One series has as its system WI38 cells. In words: Cytotoxicity on normal cell line WI38. The format is cell-based, human. As for the experimental part: (§1) To determine cytotoxicity at a therapeutically more relevant concentration, cells were treated at a single concentration of […] (FIG. 12).
(§2) Cell lines were cultured in a humidified atmosphere containing 10% CO2 in Dulbecco's modified Eagle's medium (Mediatech, Inc) supplemented with 10% fetal bovine serum (Atlanta Biologicals). Cell types used MEFs, HT1080 (human fibrosarcoma cells), NARF2 (osteosarcoma), WI-38 (human embryonic lung fibroblast), MDA MB 231 (breast cancer), HCT-116 (human colon), and NCI-H522 (Non-Small Cell Lung Cancer) cell lines. To determine viability throughout these examples, 5,000 cells were plated per well of a 96-well plate and drugs were added 1 day later. Cells were stained 1 to 3 days later with a saturated solution of methylene blue in 50% ethanol. Plates were rinsed and retained dye was quantified by spectrophotometry. Absorbance was normalized to DMSO and given as 1 or 100% for cell viability. Results are representative of at least two independent experiments. Statistical significance was assessed using the Student's t test. All commercially available chemicals were obtained from Cayman Chemicals unless otherwise noted.

The subject of a further series is HT-1080 cells. Nature of the series: Cytotoxicity (methylene blue cell viability), HT-1080. The format is cell-based, human. The procedure:
(§3) Having synthesized the CETZOLE analogs, their cytotoxic activity was evaluated. […] NCI-H522 RV-GFP is the corresponding control with RV-GFP tag, but without SLC7A11 overexpression. […] The cytotoxicity screening was conducted as described previously.
as §2

For series [1], the system named is protein bands between 25 kD to 38 kD. In words: Competitive binding assay against probe PPd (in-gel fluorescence). The conditions noted are these: for competition of PPd-labelled protein bands by known ferroptosis inducers: 20 μM concentration, bands 25 kD to 38 kD. Details: competition of PPd-labelled protein bands, dose-dependent: dose or concentration left out as unconfirmed.

The next series deals with NARF2 cells. Nature of the series: Cytotoxicity (methylene blue cell viability), NARF2. The class given is cell-based, human. The conditions noted are these: read-out: Half maximal inhibitory concentration (IC50), NARF2. As for the experimental part:
as §3, §2

Series [2] relates to NCI-H522 GFP-SLC7A11 #8 cells. In words: Cytotoxicity (methylene blue cell viability), NCI-H522 clone overexpressing GFP-SLC7A11. The class given is cell-based, human. The procedure: as §3, §2
Series [3] concerns NCI-H522 cells. In words: Cytotoxicity (methylene blue cell viability), NCI-H522. The format is cell-based, human. As for the experimental part:
as §3, §2

In series [4] the test system is MEFs (Mouse Embryonic Fibroblasts). In words: Cytotoxicity on normal cell line MEFs. The format is cell-based. The conditions noted are these: read-out: Half maximal inhibitory concentration (IC50), Normal Cell Line Mefs. As for the experimental part: as §1, §2
The test system of a further series is MDA-MB-231 cells. In words: Cytotoxicity (methylene blue cell viability), MDA-MB-231. The class given is cell-based. The procedure:
as §3, §2

For series [5], the system named is NCI-H522 cells. In words: Flow cytometry BODIPY-C11 lipid ROS measurement. The class given is cell-based, human. The procedure: The total cell counts are represented by the area under the graph.
NCI-H522 cells were seeded at 1.5×10^5 cells per 9-cm plate. The next media was replaced with fresh media before treated with drugs along with BODIPY581/591-C11 dye (0.5 μM) (Thermo Fisher). […], and resuspended in 2% FBS containing 1×PBS. Cells were analyzed in FITC channel using a BD LSR Fortessa FAC Scanner. Twenty thousand events per condition were analyzed from three independent samples. The experiments were performed twice, each time with triplicate samples (n=6). Collected data were processed with FlowJo v10 software. Lipid ROS measurement in TR9-7 or NARF2 cells was performed similarly at the indicated conditions as mentioned in the respective figure legends. Where appropriate, dead cells were excluded by gating. When gates were applied, they were identical across samples within an experiment.
A general note: A flow cytometer gives signals particle by particle.

Series [6] deals with NCI-H522 cells. The class given is cell-based. The conditions noted are these: human, 3 days.
From the text: FIGS. 10A-10C: Results of live cell imaging.
FIG. 16: Evaluation of ferroptosis-inducing character of CETZOLE probes. A three-day ferroptosis rescue assay of NCI-H522 cells treated with DMSO, 1, RSL3, and CETZOLE analogs, and liproxstatin-1 co-treatment, showing significant ferroptosis inducing probes.
The live cell montage images in FIG. 10A show notable ferroptosis-related morphological changes, such as membrane breakage and floating cell debris in the medium. The NCI-H522 cell viability improved overall when cells were co-treated with the radical scavenger liproxstatin-1 (FIG. 10C). […] To confirm this, flow-cytometry was performed to quantify lipid peroxidation using redox-active BODIPY-C11 (FIGS. 11A-11E).
Overall, CETZOLE probes do induce radical-mediated cell death and are therefore indeed ferroptotic agents.
as §2, with “noted. Compound CETZOLE 1 and the analogs were synthesized as highlighted.” for “noted.”

The test system of a further series is NCI-H522 RV-GFP cells. Nature of the series: Cytotoxicity (methylene blue cell viability), NCI-H522 RV-GFP control clone. The class given is cell-based, human. The conditions noted are these: Table 1, control clone with RV-GFP tag, read-out: Half maximal inhibitory concentration (IC50), NCI-H522 Rv-GFP. The procedure:
as §3, §2

Series [7] concerns NCI-H522 and HT-1080 cancer cell lines, WI38 and MEFs normal cell lines. In words: Selective cytotoxicity assay at a single concentration. The format is cell-based. Details: dose or concentration left out as unconfirmed. The conditions noted are these: NCI-H522, HT-1080, WI38, MEFs. The procedure: Overall, WI38 cells were the most tolerant to the treatment, whereas MEF cells were partially tolerant and relatively less sensitive than both NCI-H522 and HT-1080 cells. To determine cytotoxicity at a therapeutically more relevant concentration, cells were treated at a single concentration of […] (FIG. 12).
as §2, with “noted. Compound CETZOLE 1 and the analogs were synthesized as highlighted.” for “noted.”

Series [8] deals with NCI-H522, NCI-H522 GFP-SLC7A11 #8, NCI-H522 RV-GFP, HT-1080, NARF2 and MDA-MB 231 cell lines. Nature of the series: Cytotoxicity screening across the tested cell lines. The class given is cell-based. The conditions noted are these: summary over all tested cell lines; read-out: IC50 values against the tested cell lines. The procedure:
as §3, §2

[9] abbreviates: Homo sapiens, Table 1, HT-1080 fibrosarcoma cell line, read-out: Half maximal inhibitory concentration (IC50), HT-1080.
[10] abbreviates: Homo sapiens, Table 1, NARF2 osteosarcoma cells.
The mark [11] stands for this setting: Homo sapiens, Table 1, NCI-H522 clone overexpressing GFP-tagged SLC7A11, read-out: Half maximal inhibitory concentration (IC50), NCI-H522 GFP-SCL7A11 #8.
Setting [12] is: Homo sapiens, Table 1, NCI-H522 cancer cell line, read-out: Half maximal inhibitory concentration (IC50), NCI-H522.
Setting [13] is: Homo sapiens, Table 1, MDA-MB-231 breast cancer cell line, read-out: Half maximal inhibitory concentration (IC50), MDA-MB-231.

The values below come from US20260199297A1, “FERROPTOSIS INDUCERS TO TREAT CANCER” (The University of Toledo, priority 2022, published 2026).

SMILES strings stand for the structures. Where two headings read alike, the source gives them in different places.

Take `C#Cc1nc(C2=C(C)C(O)CC2)cs1` (racemic) [CETZOLE 1, 3-(2-Ethynylthiazol-4-yl)-2-methylcyclopent-2-en-1-ol, reference compound]: the IC50 in the series on WI38 cells (Homo sapiens, WI-38, read-out: Half maximal inhibitory concentration (IC50), Normal Cell Line WI38) was 2510 ± 40 nM; with HT-1080 cells (Homo sapiens, HT-1080, read-out: Half maximal inhibitory concentration (IC50), Cancer Cell Line HT1080) it was 3070 ± 1300 nM; in the series with HT-1080 cells (Homo sapiens, HT-1080, read-out: Half maximal inhibitory concentration (IC50), HT-1080), 3070 ± 1300 nM; with HT-1080 cells (Homo sapiens, HT-1080, read-out: IC50, HT-1080), 960 ± 110 nM; in the series with NARF2 cells (Homo sapiens) it was 14900 ± 1300 nM; in series [2] (Homo sapiens, NCI-H522, read-out: Half maximal inhibitory concentration (IC50), NCI-H522 GFP-SCL7A11 #8), 10300 ± 3600 nM. Also, the IC50 in the series on NCI-H522 cells [3] (Homo sapiens, NCI-H522, read-out: Half maximal inhibitory concentration (IC50), Cancer Cell Line NCI-H522) was found to be 2500 ± 320 nM; in the series with NCI-H522 cells [3] (Homo sapiens, NCI-H522, read-out: Half maximal inhibitory concentration (IC50), NCI-H522) it was 2560 ± 930 nM; in the series with NCI-H522 cells [3] (Homo sapiens, NCI-H522, read-out: IC50, NCI-H522) it was 2500 ± 320 nM; in [4] (Mus musculus, Fibroblast) it was 2410 ± 980 nM; in the series with MDA-MB-231 cells (Homo sapiens, MDA-MB-231, read-out: Half maximal inhibitory concentration (IC50), MDA-MB-231), 6280 ± 730 nM; with MDA-MB-231 cells (Homo sapiens, MDA-MB-231, read-out: IC50, MDA-MB-231), 3200 ± 200 nM. For the same molecule, the “competition of PPd-labelled protein bands by known ferroptosis inducers” value in series [1] was “compete out the same protein bands”. Further, the “competition of PPd-labelled protein bands, dose-dependent” value in series [1] (three bands 25 kD to 38 kD) is on record as “completely competed out”. Further, the “speed of cell death (area under graph)” value with NCI-H522 cells [5] (NCI-H522) is listed as “induced slower cell death”. In the series on NCI-H522 cells [5] (NCI-H522, BODIPY-C11, 3 hours), the “lipid peroxidation compared to DMSO” value was “induced lipid peroxidation”.
Take `C#CCCC(=O)Nc1ccc(C(=O)c2ccc(NC(=O)CO/N=C3\CC(c4csc(C#C)n4)=C(C)C3O)cc2)cc1` (centres unmarked) [PPe, (E)-N-(4-(4-(2-(((4-(2-Ethynylthiazol-4-yl)-2-hydroxy-3-methylcyclopent-3-en-1-ylidene)amino)oxy)acetamido)benzoyl)phenyl)pent-4-ynamide]: the “cell viability on liproxstatin-1 co-treatment (rescue)” value in the series with NCI-H522 cells [6] is 45%. For the same molecule, the IC50 in the series on HT-1080 cells (Homo sapiens, HT-1080, Table 3, probes and negative controls, read-out: IC50, HT-1080) was found to be 1200 ± 10 nM; in the series with NCI-H522 cells [3] (Homo sapiens, NCI-H522, Table 3, probes and negative controls, read-out: IC50, NCI-H522), 2600 ± 110 nM; in the series with MDA-MB-231 cells (Homo sapiens, MDA-MB-231, Table 3, probes and negative controls, read-out: IC50, MDA-MB-231) it was 1330 ± 20 nM.
With `COC(=O)c1ccc([C@@H]2c3[nH]c4ccccc4c3C[C@@H](C(=O)OC)N2C(=O)CCl)cc1` [RSL3, reference compound], the IC50 in the series on WI38 cells (Table 2, lung tissue fibroblast, read-out: Half maximal inhibitory concentration (IC50), Normal Cell Line WI38) stood at 50 ± 10 nM; with NCI-H522 RV-GFP cells, 310 ± 40 nM; in the series with HT-1080 cells (Table 1, HT-1080 fibrosarcoma cell line, read-out: Half maximal inhibitory concentration (IC50), HT-1080), 140 ± 80 nM; in the series with HT-1080 cells (Table 2, read-out: Half maximal inhibitory concentration (IC50), Cancer Cell Line HT1080) it was 140 ± 100 nM; in the series with NARF2 cells (Table 1, NARF2 osteosarcoma cells) it was 2460 ± 760 nM; in series [2] (Table 1, NCI-H522 clone overexpressing GFP-tagged SLC7A11, read-out: Half maximal inhibitory concentration (IC50), NCI-H522 GFP-SCL7A11 #8), 2840 ± 900 nM. In addition, the IC50 is 1100 ± 890 nM in the series with NCI-H522 cells [3] (Table 1, NCI-H522 cancer cell line, read-out: Half maximal inhibitory concentration (IC50), NCI-H522); 1100 ± 890 nM in the series on NCI-H522 cells [3] (Table 2, read-out: Half maximal inhibitory concentration (IC50), Cancer Cell Line NCI-H522); 40 ± 20 nM in series [4] (Table 2, Mouse Embryonic Fibroblasts); 220 ± 20 nM with MDA-MB-231 cells (Table 1, MDA-MB-231 breast cancer cell line, read-out: Half maximal inhibitory concentration (IC50), MDA-MB-231); 140 to 2840 nM in series [8]. In [7], the “cell death at a single concentration” value is on record as “killed all cell lines indiscriminately”. In [1], the “competition of PPd-labelled protein bands by known ferroptosis inducers” value is recorded as “compete out the same protein bands”.
As to `C#Cc1nc(C2=C(C)C(=O)/C(=N/OC(C)=O)C2)cs1` [compound 18], the IC50 in the series with NCI-H522 RV-GFP cells (Homo sapiens, NCI-H522) is greater than 20000 nM; with HT-1080 cells (setting [9]), greater than 20000 nM; in the series with NARF2 cells (setting [10]) it was greater than 20000 nM; in series [2] (setting [11]), greater than 20000 nM; with NCI-H522 cells [3] (setting [12]) it was 11000 ± 1530 nM; in the series with MDA-MB-231 cells (setting [13]) it was 18500 ± 1700 nM. The IC50 in series [8] was greater than 20000 nM.
Take `C#Cc1nc(C2=C(C)C(OC(=O)CCCCCCC)/C(=N/OC(=O)CCCCCCC)C2)cs1` (centres unmarked) [compound 20e, (E)-3-(2-Ethynylthiazol-4-yl)-2-methyl-5-((octanoyloxy)imino)cyclopent-2-en-1-yl octanoate]: the IC50 in the series on NCI-H522 RV-GFP cells (Homo sapiens, NCI-H522) was greater than 20000 nM; in the series on HT-1080 cells (setting [9]), greater than 20000 nM; with NARF2 cells (setting [10]), greater than 20000 nM; in [2] (setting [11]), greater than 20000 nM; in the series on NCI-H522 cells [3] (setting [12]), greater than 20000 nM; in the series with MDA-MB-231 cells (setting [13]), 19100 ± 2800 nM. For the same molecule, the IC50 in series [8] was greater than 20000 nM.
